In patent US7319110B2, “1H-1,2,4-triazole-3-carboxamide derivatives having cannabinoid-CB1 receptor agonistic, partial agonistic, inverse agonistic or antagonistic activity” (Solvay Pharmaceuticals B.V., priority 2002, dated 2008) one finds melting point data, which are given here for ten compounds.

In general, melting point refers to the temperature, or range, at which the solid turns liquid.

Structures are written as SMILES.

For `Cl.O=C(NN1CCCCC1)c1nc(-c2ccc(Cl)cc2)n(-c2ccc(Cl)cc2Cl)n1`, the melting point is 238 to 240 °C (dec.).

For the compound `Cl.O=C(NN1CCOCC1)c1nc(-c2ccc(Cl)cc2Cl)n(-c2ccc(Cl)cc2)n1`, the melting point fell in the range of 224 to 226 °C.

Compound `O=C(NN1CCCCC1)c1nc(-c2ccccn2)n(-c2ccc(Cl)cc2Cl)n1` yielded a melting point of 191 to 193 °C.

Turning to `O=C(NN1CCCCC1)c1nc(-c2ccc(Cl)cc2Cl)n(-c2ccc(C(F)(F)F)cc2)n1`, the melting point was 159 to 161 °C.

`O=C(NN1CCCCC1)c1nc(-c2cccnc2)n(-c2ccc(Cl)cc2Cl)n1` registered a melting point of 219 °C.

The compound `CC(C)(C)ONC(=O)c1nc(-c2ccc(Cl)cc2)n(-c2ccc(Cl)cc2Cl)n1` came in with a melting point of 150 to 152 °C.

For `O=C(NN1CCOCC1)c1nc(-c2ccc(Cl)cc2)n(-c2ccc(Cl)cc2Cl)n1`, the melting point is 184 to 186 °C.

`Cl.O=C(NN1CCCC1)c1nc(-c2ccc(Cl)cc2Cl)n(-c2ccc(Cl)cc2)n1`: the melting point was 234 to 236 °C (dec.).

Turning to `Cl.O=C(NN1CCCC1)c1nc(-c2ccc(Cl)cc2)n(-c2ccc(Cl)cc2Cl)n1` [Example 2, 5-(4-Chlorophenyl)-1-(2,4-dichlorophenyl)-N-(pyrrolidin-1-yl)-1H-1,2,4-triazole-3-carboxamide hydrochloride], the melting point was 248 to 255 °C (dec.).

In turn, `O=C(NC1CCCCC1)c1nc(-c2ccc(Cl)cc2)n(-c2ccc(Cl)cc2Cl)n1` [Example 3, 5-(4-Chlorophenyl)-N-cyclohexyl-1-(2,4-dichlorophenyl)-1H-1,2,4-triazole-3-carboxamide] registered a melting point of 186 to 188 °C.
